From patent US12459932B2, “KIF18A inhibitors” (AMGEN INC., priority 2018, dated 2025) come the findings set out here.

The target in the assay is T1, Recombinant human KIF18A (1-467 His-tagged) (Homo sapiens, UniProt Q8NI77).
T1 construct: Recombinant human KIF18A (1-467 His-tagged) protein; His
T1 sequence (Q8NI77 1-467): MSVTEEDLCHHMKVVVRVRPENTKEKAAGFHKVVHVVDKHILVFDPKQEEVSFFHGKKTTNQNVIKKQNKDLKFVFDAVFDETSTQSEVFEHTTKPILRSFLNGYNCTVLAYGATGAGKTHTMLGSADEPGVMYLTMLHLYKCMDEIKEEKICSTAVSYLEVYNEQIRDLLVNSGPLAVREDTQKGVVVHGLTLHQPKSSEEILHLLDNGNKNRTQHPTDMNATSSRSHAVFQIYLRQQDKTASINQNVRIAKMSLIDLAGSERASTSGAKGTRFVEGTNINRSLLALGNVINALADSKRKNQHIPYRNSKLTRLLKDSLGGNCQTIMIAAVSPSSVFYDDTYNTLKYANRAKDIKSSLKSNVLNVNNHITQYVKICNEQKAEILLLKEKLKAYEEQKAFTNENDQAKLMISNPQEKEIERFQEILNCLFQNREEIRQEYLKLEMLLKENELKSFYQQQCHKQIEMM
T1 sequence (P02550 whole entry partner): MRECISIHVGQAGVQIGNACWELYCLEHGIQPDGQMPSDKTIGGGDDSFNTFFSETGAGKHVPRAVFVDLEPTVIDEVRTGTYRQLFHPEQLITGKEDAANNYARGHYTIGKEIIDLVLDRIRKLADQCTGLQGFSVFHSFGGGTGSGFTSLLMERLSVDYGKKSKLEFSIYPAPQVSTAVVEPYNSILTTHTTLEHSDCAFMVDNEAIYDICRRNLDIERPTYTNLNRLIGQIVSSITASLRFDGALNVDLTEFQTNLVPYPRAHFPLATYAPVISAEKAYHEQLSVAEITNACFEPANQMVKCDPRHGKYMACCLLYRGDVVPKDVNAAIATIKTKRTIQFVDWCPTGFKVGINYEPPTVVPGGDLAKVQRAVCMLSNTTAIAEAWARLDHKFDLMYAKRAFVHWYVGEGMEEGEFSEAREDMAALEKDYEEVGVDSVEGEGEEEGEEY
T1 sequence (P02554 whole entry partner): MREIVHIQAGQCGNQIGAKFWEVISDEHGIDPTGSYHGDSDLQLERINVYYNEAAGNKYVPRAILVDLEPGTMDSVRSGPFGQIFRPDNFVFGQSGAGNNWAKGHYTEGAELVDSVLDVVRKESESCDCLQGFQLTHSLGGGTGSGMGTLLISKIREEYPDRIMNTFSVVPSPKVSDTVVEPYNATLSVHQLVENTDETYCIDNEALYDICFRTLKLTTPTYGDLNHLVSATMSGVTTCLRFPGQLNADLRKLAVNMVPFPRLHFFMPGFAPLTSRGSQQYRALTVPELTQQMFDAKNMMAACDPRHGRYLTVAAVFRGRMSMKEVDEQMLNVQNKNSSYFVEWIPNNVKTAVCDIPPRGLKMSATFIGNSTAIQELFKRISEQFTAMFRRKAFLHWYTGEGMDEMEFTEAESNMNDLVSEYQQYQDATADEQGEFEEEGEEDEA
Description: KIF18A Enzyme Assay: microtubule-stimulated ATPase activity (ADP-Glo). It counts as biochemical. Particulars: 30 nM KIF18A, 30 μg/mL pig microtubules, ATP 75 μM (Km), ADP-Glo luminescence. The procedure, abridged: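 Measures microtubule-stimulated ATPase activity as ADP formed, detected by luminescence. Compounds were tested as 2-fold serial dilutions over 22 points. IC50 values came from four-parameter logistic fits.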
On to `CC1(S(=O)(=O)Nc2ccc(C(=O)Nc3cccc(N4CCC[C@@H](CO)C4)n3)c(N3CCC4(CC3)CC4)c2)CC1` [Example 3-6, (R)-N-(6-(3-(Hydroxymethyl)piperidin-1-yl)pyridin-2-yl)-4-((1-methylcyclopropane)-1-sulfonamido)-2-(6-azaspiro[2.5]octan-6-yl)benzamide], for which the IC50 is 86 nM.
To `C[C@@H](CO)S(=O)(=O)Nc1ccc(C(=O)Nc2cccc(N3CCC(F)(F)CC3)n2)c(N2CCC3(CC2)CC3)c1` (single isomer, unassigned) [Example 9-9] belongs 41 nM; to `C[C@@H]1CN(c2cccc(NC(=O)c3ccc(NS(=O)(=O)CF)cc3N3CCC4(CC3)CC4)n2)CCO1` [Example 7-38, (R)-4-((Fluoromethyl)sulfonamido)-N-(6-(2-methylmorpholino)pyridin-2-yl)-2-(6-azaspiro[2.5]octan-6-yl)benzamide], 48 nM.
To `Cc1cc(NC(=O)c2ccc(S(=N)(=O)C3CC3)cc2N2CCC3(CC2)CC3)nc(N2CCC(F)(F)CC2)c1` (stereo in doubt) [Example 30-2, 2-(6-Azaspiro[2.5]octan-6-yl)-4-(R-cyclopropylsulfonimidoyl)-N-(6-(4,4-difluoro-1-piperidinyl)-4-methyl-2-pyridinyl)benzamide] belongs 42 nM; to `C[C@@H]1CN(c2cccc(NC(=O)c3ccc(N4CCNS4(=O)=O)cc3N3CCC4(CC3)CC4)n2)CCO1` [Example 7-4, (R)-4-(1,1-Dioxido-1,2,5-thiadiazolidin-2-yl)-N-(6-(2-methylmorpholino)pyridin-2-yl)-2-(6-azaspiro[2.5]octan-6-yl)benzamide], 287 nM; to `C[C@@H]1CN(c2cccc(NC(=O)c3ccc(NS(=O)(=O)CC(F)(F)F)cc3N3CCC4(CC3)CC4)n2)CCO1` [Example 7-39, (R)-N-(6-(2-methylmorpholino)pyridin-2-yl)-2-(6-azaspiro[2.5]octan-6-yl)-4-((2,2,2-trifluoroethyl)sulfonamido)benzamide], 135 nM.
To `CC1(S(=O)(=O)Nc2ccc(C(=O)Nc3cccc(OCC4CC4)n3)c(N3CCC4(CC3)CC4)c2)CC1` [Example 14, N-(6-(Cyclopropylmethoxy)pyridin-2-yl)-4-((1-methylcyclopropane)-1-sulfonamido)-2-(6-azaspiro[2.5]octan-6-yl)benzamide] belongs 19 nM.
On to `CC1(S(=O)(=O)Nc2ccc(C(=O)Nc3cccc(N4CC(F)C4)n3)c(N3CCC4(CC3)CC4)c2)CC1` [Example 3-16, N-(6-(3-Fluoroazetidin-1-yl)pyridin-2-yl)-4-((1-methylcyclopropane)-1-sulfonamido)-2-(6-azaspiro[2.5]octan-6-yl)benzamide], for which the IC50 turned out to be 58 nM.
As to `CS(=O)(=O)Cc1ccc(C(=O)Nc2cccc(N3CCC[C@@H](O)C3)n2)c(N2CCC3(CC2)CC3)c1` [Example 4, (R)-N-(6-(3-hydroxypiperidin-1-yl)pyridin-2-yl)-4-((methylsulfonyl)methyl)-2-(6-azaspiro[2.5]octan-6-yl)benzamide], the IC50 came out at 94 nM.
As for `C[C@H](CO)S(=O)(=O)Nc1ccc(C(=O)Nc2cccc(N3CC(F)C3)n2)c(N2CCC3(CC2)CC3)c1` (single isomer, unassigned) [Example 9-1], the IC50 was 33 nM.
In the case of `Cc1cc(NC(=O)c2ccc(NS(=O)(=O)C3CCC3)cc2N2CCC3(CC2)CC3)nc(N2CCC(F)(F)CC2)c1` [Example 7-23, 4-(Cyclobutanesulfonamido)-N-(6-(4,4-difluoropiperidin-1-yl)-4-methylpyridin-2-yl)-2-(6-azaspiro[2.5]octan-6-yl)benzamide] it was 110 nM; in that of `O=C(Nc1cccc(OCCC(F)(F)F)n1)c1ccc(NS(=O)(=O)CCO)cc1N1CCC2(CC1)CC2` [Example 5, 4-((2-Hydroxyethyl)sulfonamido)-2-(6-azaspiro[2.5]octan-6-yl)-N-(6-(3,3,3-trifluoropropoxy)pyridin-2-yl)benzamide], 25 nM; in that of `Cc1cc(NC(=O)c2ccc(NS(=O)(=O)CCO)cc2N2CCC3(CC2)CC3)nc(N2CCO[C@@H](C)C2)c1` [Example 7-19, (S)-4-((2-Hydroxyethyl)sulfonamido)-N-(4-methyl-6-(2-methylmorpholino)pyridin-2-yl)-2-(6-azaspiro[2.5]octan-6-yl)benzamide], 49 nM.
In the case of `C[C@@H]1CN(c2cccc(NC(=O)c3ccc(S(=O)(=O)C4(C)COC4)cc3N3CCC4(CC3)CC4)n2)CCO1` [Example 2-3, (R)-N-(6-(2-Methylmorpholino)pyridin-2-yl)-4-((3-methyloxetan-3-yl)sulfonyl)-2-(6-azaspiro[2.5]octan-6-yl)benzamide] it was 141 nM; in that of `C[C@@H]1CN(c2cccc(NC(=O)c3ccc(S(C)(=N)=O)cc3N3CCC4(CC3)CC4)n2)CCO1` (single isomer, unassigned) [Example 13-3], 418 nM.
In the case of `Cc1cc(NC(=O)c2ccc(NS(=O)(=O)[C@@H](C)CO)cc2N2CCC3(CC2)CC3)nc(N2CCOCC2)c1` (single isomer, unassigned) [Example 9-14] it was 18 nM; in that of `CC1(S(=O)(=O)Nc2ccc(C(=O)Nc3cccc(N4CCc5cc(Cl)ccc54)n3)c(N3CCC4(CC3)CC4)c2)CC1` [Example 3-15, N-(6-(5-Chloroindolin-1-yl)pyridin-2-yl)-4-((1-methylcyclopropane)-1-sulfonamido)-2-(6-azaspiro[2.5]octan-6-yl)benzamide], 33 nM.
As to `Cc1cc(NC(=O)c2ccc(NS(=O)(=O)[C@H](C)CO)cc2N2CCC3(CC2)CC3)nc(N2CCOCC2)c1` (single isomer, unassigned) [Example 9-13], the concentration for half-maximal inhibition (IC50) is 18 nM.
As to `CC(C)(C)NS(=O)(=O)c1cccc(NC(=O)c2ccc(S(C)(=O)=O)cc2N2CCC3(CC2)CC3)n1` [Example 4-8, N-(6-(N-(tert-Butyl)sulfamoyl)pyridin-2-yl)-4-(methylsulfonyl)-2-(6-azaspiro[2.5]octan-6-yl)benzamide], the IC50 is 76 nM.
To `CC(O)CCOc1cccc(NC(=O)c2ccc(NS(=O)(=O)CCO)cc2N2CCC3(CC2)CC3)n1` (stereo not shown) [Example 16-7, N-(6-(3-Hydroxybutoxy)pyridin-2-yl)-4-((2-hydroxyethyl)sulfonamido)-2-(6-azaspiro[2.5]octan-6-yl)benzamide] belongs 31 nM; to `CS(=O)(=O)c1ccc(C(=O)Nc2cccc(N3CCOCC3)n2)c(N2CCC3(CC2)CC3)c1` [Example 4-12, 4-(Methylsulfonyl)-N-(6-morpholinopyridin-2-yl)-2-(6-azaspiro[2.5]octan-6-yl)benzamide], 118 nM; to `CC1(S(=O)(=O)Nc2ccc(C(=O)Nc3cccc(N4CCC5(CC5)C4)n3)c(N3CCC4(CC3)CC4)c2)CC1` [Example 3-20, N-(6-(5-Azaspiro[2.4]heptan-5-yl)pyridin-2-yl)-4-((1-methylcyclopropane)-1-sulfonamido)-2-(6-azaspiro[2.5]octan-6-yl)benzamide], 50 nM.
In the case of `Cc1cc(NC(=O)c2ccc(NS(=O)(=O)C3(C)CC3)cc2N2CCC3(CC2)CC3)nc(C(C)(C)O)c1` [Example 4-17, N-(6-(2-Hydroxypropan-2-yl)-4-methylpyridin-2-yl)-4-((1-methylcyclopropane)-1-sulfonamido)-2-(6-azaspiro[2.5]octan-6-yl)benzamide] it was 163 nM.
To `CC(C)(C)c1cccc(NC(=O)c2ccc(S(C)(=O)=O)cc2N2CCC3(CC2)CC3)n1` [Example 4-6, N-(6-(tert-Butyl)pyridin-2-yl)-4-(methylsulfonyl)-2-(6-azaspiro[2.5]octan-6-yl)benzamide] belongs 166 nM; to `Cc1cc(NC(=O)c2ccc(NS(=O)(=O)CCO)cc2N2CCC3(CC2)CC3)nc(C2CCC(F)(F)CC2)c1` [Example 23, N-(6-(4,4-difluorocyclohexyl)-4-methylpyridin-2-yl)-4-((2-hydroxyethyl)sulfonamido)-2-(6-azaspiro[2.5]octan-6-yl)benzamide], 41 nM.
Turning to `C[C@@H]1CN(c2cc(C#N)cc(NC(=O)c3ccc(NS(=O)(=O)CCO)cc3N3CCC4(CC3)CC4)n2)CCO1` [Example 25, (R)-N-(4-Cyano-6-(2-methylmorpholino)pyridin-2-yl)-4-((2-hydroxyethyl)sulfonamido)-2-(6-azaspiro[2.5]octan-6-yl)benzamide], the IC50 is 41 nM.
In the case of `C[C@H](CO)S(=O)(=O)Nc1ccc(C(=O)Nc2cccc(N3CCO[C@@H](C)C3)n2)c(N2CCC3(CC2)CC3)c1` (single isomer, unassigned) [Example 9-17] it was 24 nM.
To `CC1(O)CCN(c2cccc(NC(=O)c3ccc(NS(=O)(=O)C4(C)CC4)cc3N3CCC4(CC3)CC4)n2)C1` (stereo not shown) [Example 3-2, N-(6-(3-Hydroxy-3-methylpyrrolidin-1-yl)pyridin-2-yl)-4-((1-methylcyclopropane)-1-sulfonamido)-2-(6-azaspiro[2.5]octan-6-yl)benzamide] belongs 359 nM; to `CC(CO)NS(=O)(=O)c1ccc(C(=O)Nc2cccc(N3CCO[C@H](C)C3)n2)c(N2CCC3(CC2)CC3)c1` (stereo partly drawn) [Example 1-5, 4-(N-(1-Hydroxypropan-2-yl)sulfamoyl)-N-(6-((R)-2-methylmorpholino)pyridin-2-yl)-2-(6-azaspiro[2.5]octan-6-yl)benzamide], 47 nM.
In the case of `Cc1cc(NC(=O)c2ccc(NS(=O)(=O)CC3CC3)cc2N2CCC3(CC2)CC3)nc(N2CCC(F)(F)CC2)c1` [Example 7-24, 4-((Cyclopropylmethyl)sulfonamido)-N-(6-(4,4-difluoropiperidin-1-yl)-4-methylpyridin-2-yl)-2-(6-azaspiro[2.5]octan-6-yl)benzamide] it was 186 nM; in that of `CC(C)(C)NS(=O)(=O)c1ccc(C(=O)Nc2cccc(N3CCC[C@H](O)C3)n2)c(N2CCC3(CC2)CC3)c1` [Example 3-3, (S)-4-(N-(tert-Butyl)sulfamoyl)-N-(6-(3-hydroxypiperidin-1-yl)pyridin-2-yl)-2-(6-azaspiro[2.5]octan-6-yl)benzamide], 96 nM.
